Experiments:
ulcerative colitis = conditions: cited from earlier work
[1] = patients treated long-term with 6MP or AZA for IBD; cited from earlier work
Crohn's disease = conditions: multiple controlled trials and a recent meta-analysis; cited from earlier work
[2] = test system: acetic acid-induced colitis; assay: Acetic acid-induced colitis in the rat (pre-treatment, intrarectal); assay type: in vivo, rat (Sprague-Dawley); conditions: for effectiveness against acetic acid-induced colitis: i.r., 650 μmol/kg, before acetic acid, rat
Description: A typical model of IBD in acetic acid-induced colitis in the rat has been described by Krawisz et al in Amer. J. Proc. Gastro. Col. Rec. Surg., Vol. 31, pages 11-18 (1980); and by Sharon et al in Gastroenterology, Vol. 88, pages 55-63 (1985) and Vol. 86, pages 453-460 (1984). Acetic acid-induced colitis is characterized by the movement of inflammatory cells into the colon, with the number of such cells in the mucosa being measured by the activity of myeloperoxidase, a marker enzyme for these cells. Positive desirable activity is indicated by a reduction in the high levels of myeloperoxidase caused by acetic acid.
Typically, Sprague-Dawley rats from Charles River Laboratories, Portage, Michigan (either sex, weight approximately 250 g) are dosed with test compounds and controls. Thereafter, the rats are given an intracolonic enema of acetic acid which produces a severe inflammatory response in the colon of a healthy rat characterized by rectal bleeding, diarrhea, epithelial erosions and destructions of crypts and gland cells. Twenty-four hours later, the test and control animals are sacrificed and the distal ten centimeters of the colons are removed and opened longitudinally. The tissue lesions contained within the removed, opened section of the colons are scored.
After the systematic evaluation of the impact of various fasting times, use of vehicles, the time interval between pre-treatment and administration of the acetic acid and altering the concentration of acetic acid, the final protocol for the experiments is to fast the rats for 30 hours in hanging wire cages, anesthetize the animals with sodium pentobarbital, administer the test drug 1 cc intrarectally (i.r.) either as a suspension or a solution in water, and to give the acetic acid (7.5% in water) 1 cc i.r. 30 minutes later. The rats are sacrificed 24 hours later and the colons are removed and assessed for damage.

[3] = Iron binding in a test tube
[4] = Preliminary acute toxicity studies in mice; assay type: in vivo
[5] = test system: acetic acid-induced colitis; assay: Reversal studies: compound given 30 minutes after acetic acid; assay type: in vivo; conditions: given 30 minutes after 2.5% acetic acid; rat
[6] = Iron chelation when given to rats orally or subcutaneously; assay type: in vivo; conditions: orally or subcutaneously (s.c.)

Compound: Nc1ccc(O)c(C(=O)O)c1 [mesalamine, 5-aminosalicylic acid]
- effectiveness for the treatment of acute UC (ulcerative colitis): effective to some degree in some patients

Compound: Sc1ncnc2nc[nH]c12 [6MP, 6-Mercaptopurine]
- dose-related leukopenia, patients affected [1]: 2-5%
- efficacy in Crohn's disease (Crohn's disease): support the efficacy

Compound: O=C(O)c1cc(/N=N/c2ccc(S(=O)(=O)Nc3ccccn3)cc2)ccc1O [sulfasalazine]
- effectiveness for the treatment of acute UC (ulcerative colitis): effective to some degree in some patients

Compound: Cn1cnc([N+](=O)[O-])c1Sc1ncnc2nc[nH]c12 [AZA, azathioprine]
- dose-related leukopenia, patients affected [1]: 2-5%
- efficacy in Crohn's disease (Crohn's disease): support the efficacy
- use in ulcerative colitis (ulcerative colitis; several controlled trials): support the use

Compound: C[C@]1(C(=O)O)CSC(c2ncccc2O)=N1 [DFT, reference compound]
- effectiveness against acetic acid-induced colitis [2]: ineffective

Compound: Cc1ccc(O)c(C2=NC(C(=O)O)CC2)c1 (centres unmarked) [2H-pyrrolecarboxylic acid, 3,4-dihydro-5-(2-hydroxy-5-methylphenyl)-2H-pyrrole-2-carboxylic acid]
- iron binding [3]: binds iron remarkably well
- deaths ([4]; i.p., at doses up to 1 g/kg): no deaths
- acute toxicity ([4]; preliminary): virtually non-toxic
- lesions compared with the control group [5]: less severe and less active
- state of the lesions (resolution, histology) [5]: apparently resolving and with some lamina proprial fibrosis and considerable hyper-plasia of submucosal lymphoid tissue
- dose response: prevention of severe lesions ([2]; 162.5 μmol/kg (41.5 mg/kg) at 1 cc i.r., rats): severe lesions being prevented in a majority of rats
- head-to-head comparison with 5-ASA or its commercially available formulation (Rowasa) ([2]; 650 μmol/kg vs. 1742 mmol/kg (so in the source), FIGS. 7 and 8): far superior even at a much lower dose
- damage to the colons compared with control rats ([2]; FIGS. 2-8): considerably less damage
- damage in the colons of the rats, expanded experiments ([2]; expanded experiments): very little damage
- damage in the colons of the test animals ([2]; i.r. at 650 μmol/kg (165 mg/kg N-methylhydroxamate or 166 mg/kg 2H-pyrrolecarboxylic acid), 30 minutes before acetic acid, FIGS. 2-8): very little damage
- activity as an iron chelator [6]: inactive

Compound: CC(=O)N(O)CCCCCNC(=O)CCC(=O)N(O)CCCCCNC(=O)CCC(=O)N(O)CCCCCN [DFO, reference compound]
- effectiveness against acetic acid-induced colitis [2]: ineffective

Source: patent US6159983A, “Method and composition for treatment of inflammatory bowel disease” (University of Florida, priority 1998, dated 2000)
